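How tested: cells in 96-well plates exposed to compound for 48 hours at five concentrations. GI50 is the concentration that inhibits growth by half.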 Active and inactive are the calls of the source. Cut-off read from the data, not from the text of the source: active = GI50 up to about 1.1 µM and inactive = higher.
Assays:
Experiment in all cases: NCI anticancer screen, dose series, 48 h
OVCAR-5 = tested on: OVCAR-5
SK-MEL-2 = tested on: SK-MEL-2
Malme-3M = tested on: Malme-3M
BT-549 = tested on: BT-549
NCI-H226 = tested on: NCI-H226
RXF 393 = tested on: RXF 393
UO-31 = tested on: UO-31
OVCAR-8 = tested on: OVCAR-8
SF-295 = tested on: SF-295
T47D = tested on: T47D
MOLT-4 = tested on: MOLT-4
SR = tested on: SR
MDA-MB-231 = tested on: MDA-MB-231
MCF7 = tested on: MCF7
DU-145 = tested on: DU-145
UACC-62 = tested on: UACC-62
CAKI-1 = tested on: CAKI-1
U-251 = tested on: U-251
NCI-H522 = tested on: NCI-H522
HCC 2998 = tested on: HCC 2998
NCI-H23 = tested on: NCI-H23
K562 = tested on: K562
ACHN = tested on: ACHN
KM12 = tested on: KM12
NCI/ADR-RES = tested on: NCI/ADR-RES
RPMI-8226 = tested on: RPMI-8226
SF-539 = tested on: SF-539
IGROV-1 = tested on: IGROV-1
SW-620 = tested on: SW-620
SK-MEL-28 = tested on: SK-MEL-28
HCT-15 = tested on: HCT-15
UACC-257 = tested on: UACC-257
HCT-116 = tested on: HCT-116
PC-3 = tested on: PC-3
SF-268 = tested on: SF-268
OVCAR-4 = tested on: OVCAR-4
CCRF-CEM = tested on: CCRF-CEM
786-0 = tested on: 786-0
HOP-62 = tested on: HOP-62
HT-29 = tested on: HT-29
SNB-19 = tested on: SNB-19
OVCAR-3 = tested on: OVCAR-3
SK-OV-3 = tested on: SK-OV-3
COLO 205 = tested on: COLO 205
SNB-75 = tested on: SNB-75
SN12C = tested on: SN12C
MDA-N = tested on: MDA-N
A498 = tested on: A498
HOP-92 = tested on: HOP-92
A549 = tested on: A549
M14 = tested on: M14
EKVX = tested on: EKVX
NCI-H460 = tested on: NCI-H460
MDA-MB-435 = tested on: MDA-MB-435
SK-MEL-5 = tested on: SK-MEL-5
HL-60 = tested on: HL-60
TK-10 = tested on: TK-10
LOX IMVI = tested on: LOX IMVI

Measured: GI50

N#CC1(C#N)C(c2ccccc2)NC23CCCCC2C1(C#N)C(=O)N3 (centres undefined)
> 100 µM: HCT-15
inactive: OVCAR-5 > 100 µM | SK-MEL-2 > 100 µM | Malme-3M > 100 µM | BT-549 > 100 µM | NCI-H226 > 100 µM | RXF 393 > 100 µM | UO-31 > 100 µM | OVCAR-8 > 100 µM | SF-295 > 100 µM | T47D > 100 µM | MOLT-4 > 100 µM | SR 57.8 µM | MDA-MB-231 > 100 µM | MCF7 > 100 µM | DU-145 > 100 µM | UACC-62 > 100 µM | CAKI-1 > 100 µM | U-251 > 100 µM | NCI-H522 > 100 µM | HCC 2998 > 100 µM | NCI-H23 > 100 µM | K562 > 100 µM | ACHN > 100 µM | KM12 > 100 µM | NCI/ADR-RES > 100 µM | RPMI-8226 > 100 µM | SF-539 > 100 µM | IGROV-1 > 100 µM | SW-620 > 100 µM | SK-MEL-28 > 100 µM | UACC-257 > 100 µM | HCT-116 > 100 µM | PC-3 > 100 µM | SF-268 > 100 µM | OVCAR-4 > 100 µM | CCRF-CEM 51.6 µM | 786-0 > 100 µM | HOP-62 > 100 µM | HT-29 > 100 µM | SNB-19 > 100 µM | OVCAR-3 > 100 µM | SK-OV-3 > 100 µM | COLO 205 > 100 µM | SNB-75 > 100 µM | SN12C > 100 µM | MDA-N > 100 µM | A498 > 100 µM | HOP-92 > 100 µM | A549 > 100 µM | M14 > 100 µM | EKVX > 100 µM | NCI-H460 > 100 µM | MDA-MB-435 > 100 µM

O=C(NN1C(=O)C=CC1=O)c1ccccc1Nc1ccccc1C(=O)NN1C(=O)C=CC1=O
> 100 µM: HCT-15
inactive: OVCAR-5 > 100 µM | SK-MEL-2 > 100 µM | Malme-3M > 100 µM | BT-549 > 100 µM | NCI-H226 > 100 µM | RXF 393 > 100 µM | UO-31 > 100 µM | SK-MEL-5 > 100 µM | OVCAR-8 > 100 µM | SF-295 > 100 µM | T47D > 100 µM | MOLT-4 > 100 µM | SR > 100 µM | MDA-MB-231 > 100 µM | MCF7 > 100 µM | DU-145 > 100 µM | UACC-62 > 100 µM | CAKI-1 > 100 µM | U-251 > 100 µM | NCI-H522 > 100 µM | HCC 2998 > 100 µM | NCI-H23 > 100 µM | K562 > 100 µM | HL-60 > 100 µM | ACHN > 100 µM | KM12 > 100 µM | NCI/ADR-RES > 100 µM | RPMI-8226 > 100 µM | SF-539 > 100 µM | IGROV-1 > 100 µM | SW-620 > 100 µM | SK-MEL-28 > 100 µM | UACC-257 > 100 µM | HCT-116 > 100 µM | PC-3 > 100 µM | SF-268 > 100 µM | OVCAR-4 > 100 µM | CCRF-CEM > 100 µM | 786-0 > 100 µM | HOP-62 > 100 µM | HT-29 > 100 µM | TK-10 > 100 µM | SNB-19 > 100 µM | OVCAR-3 > 100 µM | COLO 205 > 100 µM | SNB-75 > 100 µM | SN12C > 100 µM | MDA-N > 100 µM | LOX IMVI > 100 µM | HOP-92 > 100 µM | M14 > 100 µM | EKVX > 100 µM | NCI-H460 > 100 µM | MDA-MB-435 > 100 µM

— ChEMBL document CHEMBL1201862, “PubChem BioAssay data set” (2004)
